The record followed here is US20060286182A1, “Synergistic cinnamon combinations and methods for enhancing insulin activity” (Abeille Pharmaceuticals, Inc., priority 2005, published 2006).

This experiment relates to 3T3-L1 adipocytes. Put plainly: Oil Red O staining of triglyceride content (lipogenesis) in differentiating 3T3-L1 adipocytes. The experiment is classed as cell-based, murine. The following applies: for increase in triglyceride content (lipogenic/adipogenic increase) relative to the solvent control: 50 μg test material/mL, Day 0 to Day 7 of differentiation.

Text: The Model—The 3T3-L1 murine fibroblast model is used to study the potential effects of compounds on adipocyte differentiation and adipogenesis.
As preadipocytes, 3T3-L1 cells have a fibroblastic appearance. They replicate in culture until they form a confluent monolayer, after which cell-cell contact triggers Go/G1 growth arrest. Terminal differentiation of 3T3-L1 cells to adipocytes depends on proliferation of both pre- and postconfluent preadipocytes. Subsequent stimulation with 3-isobutyl-1-methylxanthane, dexamethasone, and high dose of insulin (MDI) for two days prompts these cells to undergo postconfluent mitotic clonal expansion, exit the cell cycle, and begin to express adipocyte-specific genes. Approximately five days after induction of differentiation, more than 90% of the cells display the characteristic lipid-filled adipocyte phenotype.
Cell culture and Treatment—The murine fibroblast cell line 3T3-L1 was obtained from the American Type Culture Collection (Manasus, Va.) and sub-cultured according to instructions from the supplier. For experiments, cells were cultured in DMEM containing 10% FBS-HI, with added 50 units penicillin/mL and 50 μg streptomycin/mL, and maintained in log phase prior to experimental setup. Cells were grown in a 5% CO2 humidified incubator at 37° C. Components of the pre-confluent medium included (1) 10% FBS/DMEM containing 4.5 g glucose/L; (2) 50 U/mL penicillin; and (3) 50 μg/mL streptomycin. Growth medium was made by adding 50 mL of heat inactivated FBS and 5 mL of penicillin/streptomycin to 500 mL DMEM. This medium was stored at 4° C. Before use, the medium was warmed to 37° C. in a water bath.
3T3-T1 cells were seeded at an initial density of about 4×10^4 cells/cm^2 in 24-well plates. For two days, the cells were allowed to grow to reach confluence. Following confluence, the cells were forced to differentiate into adipocytes by the addition of differentiation medium; this medium consisted of (1) 10% FBS/DMEM (high glucose); (2) 0.5 mM methylisobutylxanthine; (3) 0.5 μM dexamethasone and (4) 10 Hg/mL insulin. After three days, the medium was changed to post-differentiation medium consisting of 10 μg/mL insulin in 10% FBS/DMEM.
Test material was added in dimethyl sulfoxide at Day 0 of differentiation and every two days throughout the maturation phase (Day 7). Whenever fresh media was added, fresh test material was also added. As a positive control, troglitazone was added to achieve a final concentration of 4.4 μg/mL (10 μM). Metformin, Sample A and the metformin/Sample A combinations of 1:10, 1:5 and 1:2.5 were all tested at 50 μg test material/mL. Metformin, Sample B and the metformin/Sample B combination of 1:10 were all tested at 50 μg test material/mL.

Consider `Cc1cnc(C(=O)NCCc2ccc(S(=O)(=O)NC(=O)NC3CCCCC3)cc2)cn1` [Glipizide], for which the “increase in triglyceride content (lipogenic/adipogenic increase) relative to the solvent control” value stood at 40%. For the same compound, for the setting “listed as glipizide”, the “increase in triglyceride content (lipogenic/adipogenic increase) relative to the solvent control” value was “increased triglyceride biosynthesis”.
In the case of `Cc1c(C)c2c(c(C)c1O)CCC(C)(COc1ccc(CC3SC(=O)NC3=O)cc1)O2` (stereo not shown) [Troglitazone, troglitazone], the “increase in triglyceride content of the 3T3-L1 cells” value (positive control, 4.4 μg/mL (10 μM), Day 0 to Day 7, relative to solvent control) was 54%.
`CN(C)C(=N)N=C(N)N` [metformin]: the “increase in triglyceride content (lipogenic/adipogenic increase) relative to the solvent control” value is “four”.
